In US11202792B2, “CD99 inhibitors and their uses” (GEORGETOWN UNIVERSITY, priority 2016, dated 2021):

What was measured:
[1] = tested on: TC-71 and RD-ES cell lines; assay: Dose-dependent cytotoxicity assay in ES cell lines; type: cell-based, human; conditions: dose-response at 1, 3, 10 and 30 μmol/L in TC-71 and RD-ES
Method: The plate was installed into the RTCA system, and the electrical impedance (represented as cell index) was measured every 10 min.
The primary screen was based on a direct binding assay using surface plasmon resonance (SPR) technology with purified extracellular domain of CD99 (CD99-ECD) protein that was immobilized on a neutravidin-coated sensor chip. […] A negative control protein was used in order to eliminate non-specific binders. […] Dose-response studies were performed with 2 compounds at 1, 3, 10 and 30 μmol/L concentration in ES cell lines.

[2] = target: T1, CD99-ECD (extracellular domain of human CD99) (Homo sapiens, UniProt P14209); assay: SPR binding, CD99-ECD purified from bacteria
T1 construct: the extracellular domain (Asp23-Asp122) of human CD99; made in house; host or cells: Escherichia coli BL21 (DE3)
T1 sequence (P14209 23-122): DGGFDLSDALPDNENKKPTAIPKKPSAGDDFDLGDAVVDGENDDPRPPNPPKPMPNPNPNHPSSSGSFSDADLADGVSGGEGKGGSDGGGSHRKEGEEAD
Text: The Champion™ pET104 BioEase™ Gateway® Expression System (Invitrogen (Carlsbad, Calif.)) was used to produce CD99-ECD fused with a N-terminal biotin tag, as directed by the manufacturer's instructions. Briefly, the DNA sequence encoding the extracellular domain (Asp23-Asp122) of human CD99 was amplified by PCR using pcDNA3.1 expression vector (Life Technologies (Carlsbad, Calif.)) carrying the full-length human CD99 cDNA transcript variant 1 as template. The primers were designed to include an additional C-terminal 6×His tag in the protein. The PCR product was gel purified with a QIAquick gel extraction kit (Qiagen (Hilden, Germany)) and subcloned into the pDONR 221 entry vector. The entry clone was then subjected to a recombination reaction with pET104.1-DEST destination vector, an expression vector with a N-terminal BioEase tag. The presence of an insert was confirmed by DNA sequencing.
CD99-ECD was expressed in Escherichia coli BL21 (DE3) cells. A saturated overnight culture of cells was diluted by 20-fold into fresh LB medium containing 100 μg/mL ampicillin. To induce the expression of CD99-ECD, cells were grown to OD600nm 0.5-0.7 at 37° C. and induced by the addition of isopropyl-β-D-thiogalactopyranoside to a final concentration of 1 mmol/L. The cultures were grown for an additional 3 h at 37° C. Cells were harvested by centrifugation at 8,000×g for 15 min, resuspended in 50 mmol/L sodium phosphate buffer, pH 7.4, containing 500 mmol/L NaCl, 10 mmol/L imidazole and 1 Complete EDTA-free protease inhibitor tablet/50 mL (Roche Diagnostics), and lysed by sonication. […] Protein fractions were finally eluted with a linear gradient of imidazole (10 to 1000 mmol/L) in the same buffer. The purity of the protein was assessed by SDS-PAGE followed by Coomassie staining. The eluted fractions were stored at −80° C. for further use. […]

TC-CD99-shRNA #1 cells = assay: Soft agar colony formation assay, CD99 knockdown cells; type: cell-based, human
[3] = tested on: TC-71, 6647 and RDES ES cells; assay: Soft agar colony formation assay, ES cells; type: cell-based, human; conditions: dose-dependent
Method: Anchorage-independent growth was determined in 0.33% agarose (Sea-Plaque Agarose, Lonza) with a 0.5% agarose underlay. […] Colonies were counted after 7-12 days.

[4] = target: T2, recombinant human full-length CD99 (Homo sapiens, UniProt P14209); assay: SPR binding kinetics, recombinant human full-length CD99 (Biacore T200); conditions: full-length CD99 produced in HEK293 cells, immobilized by amine coupling
T2 construct: Purified recombinant human full-length CD99 produced in HEK293 cells was purchased from Origene; purchased Origene #TP304056; host or cells: HEK293
T2 sequence (P14209 23-185): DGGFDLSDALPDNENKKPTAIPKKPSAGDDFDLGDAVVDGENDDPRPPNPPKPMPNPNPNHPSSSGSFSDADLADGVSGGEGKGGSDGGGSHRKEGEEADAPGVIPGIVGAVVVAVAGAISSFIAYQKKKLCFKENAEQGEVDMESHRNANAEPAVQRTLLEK
Method: The initial binding screening of the NCI/DTP chemical libraries was performed on a Biacore T200 instrument at room temperature using a neutravidin-coated CM5 chip (GE Healthcare Bio-Sciences) coupled with biotinylated CD99-ECD on one flow cell at levels of ˜3,000 response units (RU). A negative control protein, Ly6k was immobilized on another flow cell of the same chip (˜11,000 RU), and the first flow cell was left empty for reference subtraction due to nonspecific binding. Analytes were diluted in HBS—P buffer [10 mmol/L HEPES, pH 7.4, 150 mmol/L NaCl, % 0.05 (v/v) surfactant P20], and were injected individually over all flow cells. The running buffer contained appropriate concentrations of DMSO in HBS—P to match the DMSO level of the samples. Kinetic studies for antibody- or compound-CD99 interactions were performed in a Biacore T200 instrument. Purified recombinant human full-length CD99 produced in HEK293 cells was purchased from Origene (Rockville, Md.) (#TP304056). The recombinant human full-length CD99 was immobilized on a CM5 sensor chip by the amine-coupling method in sodium acetate buffer, pH 4.0 (˜10,000 RU). The first flow cell was left empty for background signal subtraction. Kinetic characterization of the interactions was done by injecting increasing concentrations of analytes as indicated over CD99-captured and control surface. KD (equilibrium dissociation constant) values were obtained using BiaEvaluation software (version 1.0) (Biacore) (GE Healthcare). All kinetic experiments were conducted in HBS—P buffer, which contained 1% (v/v) DMSO in case of compounds.

TC-71 ES cells = assay: Cell viability IC50, TC-71; type: cell-based, human; conditions: TC-71 cells, WST-1, 48 h (FIG. 10B)
A4573 ES cells = assay: Cell viability IC50 (WST-1), A4573; type: cell-based, human; conditions: WST-1, 48 h (FIG. 10B)

Row | Compound | IC50 [1] | Kd [2] | colony formation in CD99 knockdown cells (TC-CD99-shRNA #1 cells) | colony formation (anchorage-independent growth) [3] | Kd [4] | IC50 (TC-71 ES cells) | IC50 (A4573 ES cells)
1 | C=C(Cl)C(Cl)(CBr)CCC(Br)C(C)(C)Cl (stereo not shown) [NSC662825] | 9 µM | – | – | – | – | – | –
2 | clofarabine-5′-triphosphate | – | 7.6 µM | diminished | inhibited | 3.7 µM | 0.17 µM | 0.46 µM
